Data on four molecules can be found in patent US20150313921A1, “Cancer Treatment Methods” (PLEDPHARMA AB, priority 2012, published 2015).

Structures are written as SMILES. Where two headings read alike, the source gives them in different places.

For series [1] the following is noted: Mn2+ versus Zn2+.
Series [2] deals with human non-small cell lung cancer (NSCLC) U1810 cells. The series is described as follows: MTT viability assay, U1810 cells. The class given is cell-based. The note with it: for IC50: 48 h exposure, read-out: IC50 (concentration causing 50% inhibition of viability). How it is done:
The viability of cells was measured using the MTT assay. […] Cells were then exposed for 48 h to 1-1,000 μM DPDP (lot #RDL02090206) or MnDPDP (lot #02090106). […] The viability of U1810 cells in the presence of increasing concentrations of DPDP or MnDPDP is presented as concentration-response curves (mean±S.D.). The individual curves were fitted to the sigmoidal normalized response logistic equation (Graphpad Prism, version 5.02). From this analysis the concentrations causing 50% inhibition (IC50) of the test substances were calculated.
In general terms: Tetrazolium assays rely on reduction of a dye to a coloured formazan, in cell work by metabolically active cells.

For series [3], the system named is ovarian carcinoma A2780 cells. The series is described as follows: MTT viability assay, A2780 cells. The conditions noted are these: for cytotoxic effect in A2780 cells: alone (MnDPDP: alone or with Dx 3 nM or 30 nM), 48 h, MTT; for EC50: Homo sapiens, A2780, 48 h.
Description: A2780 cells were co-incubated with MnDPDP, DPDP, and/or Dx. The viability of cells was measured using the methylthiazoletetrazolium (MTT) assay. Briefly, 8000 cells were seeded per well on a 96-well plate and grown overnight under standards. Cells were then exposed for 48 hours to various concentrations of MnDPDP, DPDP, and/or Dx at 37° C. The viability of the cells was then assessed by adding 5 mg/ml MTT to a final concentration of 0.5 mg/ml and incubating cells for a further 4 hours at 37° C. The blue formazan that is formed by mitochondrial dehydrogenases of viable cells was then dissolved overnight at 37° C. by adding 10% SDS and 10 mM HCl to a final concentration of 5% SDS and 5 mM HCl. Finally, the absorbance of the solution was read at 570 nm with a reference at 670 nm in a microplate reader (SpectraMax 340; Molecular Devices, Sunnyvale, Calif.) connected to an Apple Macintosh computer running the program Softmax Pro V1.2.0 (Molecular Devices). Viability is expressed as percent absorbance (A570 nm-A670 nm) relative to the untreated control cells. All values were given as arithmetic means±SD for in vitro cell MTT viability data. In vitro responses of Dx, MnDPDP, and/or DPDP with regard to viability are presented as concentration-effect curves. […] From this analysis, the low and Q7 high pD2 values (negative log of the concentration of Dx that produces half of its maximal inhibition in the two phases, −logIC50) were calculated.
A further series relates to infarct size. The conditions noted are these: pigs; MnPLED 3 μmol/kg; cited from earlier work.
For series [4] the following is noted: pigs, ten minutes after injection; cited from earlier work.
For series [5] the following is noted: cited from earlier work.
The conditions of series [6]: cited from earlier work. This is another data set of the same source.

Take `Cc1ncc(COP(=O)(O)O)c(CN(CCN(CC(=O)O)Cc2c(COP(=O)(O)O)cnc(C)c2O)CC(=O)O)c1O` [DPDP, N,N′-bis-(pyridoxal-5-phosphate)-ethylenediamine-N,N′-diacetic acid]: in series [1], the “Mn2+ dissociates more readily than Zn2+ (fold)” value was “about 1000 times”. The “IC50 ratio between MnDPDP and DPDP (times more potent than MnDPDP)” value in series [2] (48 h) came to 17 times. Besides, in series [2], the IC50 is 52.8 µM. Also, the cancer cells killed entry in series [3] (30 μM, A2780 cells) is “approximately 50%”; in series [3] (100 μM, A2780 cells) it was “killing almost all cells”. In addition, the “additive effect to the cytotoxic effect of Dx alone” value in series [3] (DPDP 10 μM or 30 μM added to Dx, A2780 cells) was “did not reveal any obvious additive effect”. Further, the “cytotoxic effect in A2780 cells” value in series [3] was “had cytotoxic effects”.
For the molecule `COc1cccc2c1C(=O)c1c(O)c3c(c(O)c1C2=O)C[C@@](O)(C(=O)CO)C[C@@H]3O[C@H]1C[C@H](N)[C@H](O)[C@H](C)O1` [Dx, Doxorubicin, reference compound], the EC50 is 0.00545 µM in series [3] (read-out: pD2 (-logEC50), first phase (high pD2) of biphasic curve (converted)) and 0.225 µM in series [3] (read-out: pD2 (-logEC50), second phase (low pD2) of biphasic curve (converted)).
As for `Cc1[nH+]cc(COP(=O)([O-])[O-])c(CN(CCN(CC(=O)[O-])Cc2c(COP(=O)([O-])O)c[nH+]c(C)c2O)CC(=O)[O-])c1O.[Mn].[Na+].[Na+].[Na+]` [MnDPDP], in the series with infarct size, the “effect on infarct size” value is given as “did not reduce the infarct size”. Further, the IC50 in series [2] was determined as 437 µM. Further, the “cytotoxic effect in A2780 cells” value in series [3] is reported as “did not have any obvious cytotoxic effects”. Further, in series [4], the “replacement of manganese with zinc” value is “all manganese has been replaced with zinc”. In series [5] (intravenous injection into humans), the administered manganese released entry was “about 80%”. Further, the “injected manganese that stays bound to the chelator” value in series [5] (man, for a considerable amount of time) was “about 30%”. For the same molecule, the “injected MnDPDP transformed into MnPLED” value in series [5] (shortly after intravenous injection in man) is “about 30%”.
In the case of `Cc1ncc(CO)c(CN(CCN(CC(=O)O)Cc2c(CO)cnc(C)c2O)CC(=O)O)c1O` [PLED, N,N′-dipyridoxyl ethylenediamine-N,N′-diacetic acid], the “Mn2+ dissociates more readily than Zn2+ (fold)” value in series [1] is “about 1000 times”. Besides, in series [6] (Mn2+), the “stability constant with Mn2+” value was 12.56 logK. Also, in series [6] (Zn2+), the “stability constant with Zn2+” value is recorded as 16.68 logK.
